Assay results reported in patent US11629147B2, “Triazolo-pyrimidine compounds and uses thereof” (Dizal (Jiangsu) Pharmaceutical Co., Ltd., priority 2019, dated 2023).

Assays:
[1] = molecular target: mA2a (Mus musculus (Mouse), UniProt Q60613); assay: cAMP inhibition assay in mA2a/CHO cells; format: cell-based; settings: 10 μM adenosine, read-out: cAMP & FLIPR IC50 (nM) mA2a
Method: (§1) hA2a/CHO, hA2b/CHO and mA2a/CHO(Genscript) were plated at 5×10^3 cells/well into 384-well polystyrene plates at the day of experiment. Compounds were pre-incubated with cells for 30 min at 37° C., 5% CO2. Then 10 μM adenosine was added to the cells and incubated for 30 min at 37° C., 5% CO2. Detection reagent (CISBIO) was added and the plates were incubated for 60 min at room temperature. The signal was captured by Envision.

[2] = molecular target: hA2a (Homo sapiens (Human), UniProt P29274); assay: cAMP inhibition assay in hA2a/CHO cells; format: cell-based; settings: 10 μM adenosine, read-out: cAMP & FLIPR IC50 (nM) hA2a
Method: as §1
FLIPR™ and cAMP inhibition activities of exemplary compounds in different adenosine receptor over-expressing cell lines are shown in Table 4 below.

Sequence of mA2a (Q60613 whole entry): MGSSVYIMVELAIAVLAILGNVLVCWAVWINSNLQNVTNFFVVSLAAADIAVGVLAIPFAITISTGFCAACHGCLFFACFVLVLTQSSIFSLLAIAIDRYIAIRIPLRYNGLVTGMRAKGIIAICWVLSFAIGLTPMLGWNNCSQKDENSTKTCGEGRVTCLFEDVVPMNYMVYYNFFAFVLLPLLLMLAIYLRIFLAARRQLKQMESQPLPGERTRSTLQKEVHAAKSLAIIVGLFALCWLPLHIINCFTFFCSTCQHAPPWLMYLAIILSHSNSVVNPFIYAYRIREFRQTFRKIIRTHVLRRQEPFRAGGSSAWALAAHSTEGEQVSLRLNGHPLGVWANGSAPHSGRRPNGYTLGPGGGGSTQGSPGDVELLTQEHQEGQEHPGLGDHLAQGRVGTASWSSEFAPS
Sequence of hA2a (P29274 whole entry): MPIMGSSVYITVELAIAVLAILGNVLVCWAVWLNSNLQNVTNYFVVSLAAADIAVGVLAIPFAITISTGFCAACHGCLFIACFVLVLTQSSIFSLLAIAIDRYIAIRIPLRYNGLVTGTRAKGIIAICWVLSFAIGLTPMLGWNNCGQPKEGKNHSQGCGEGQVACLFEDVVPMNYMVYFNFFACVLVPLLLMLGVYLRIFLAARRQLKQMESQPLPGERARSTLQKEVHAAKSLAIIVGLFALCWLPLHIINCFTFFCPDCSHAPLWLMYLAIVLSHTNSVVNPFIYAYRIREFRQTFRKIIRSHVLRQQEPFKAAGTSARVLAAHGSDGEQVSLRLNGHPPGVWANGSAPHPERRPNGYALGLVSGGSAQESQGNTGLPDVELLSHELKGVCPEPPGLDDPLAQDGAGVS

IC50 [1]: 1 nM
IC50 [2]: 0.1 nM
Compound: Cc1cnc2ccc(-c3c(-c4ccc(F)cc4)nc(N)n4nc(CC5CCOC5)nc34)cn12 (single isomer, unassigned; isomer 2) [Example 105-2, 7-(4-fluorophenyl)-8-(3-methylimidazo[1,2-a]pyridin-6-yl)-2-((tetrahydrofuran-3-yl)methyl)-[1,2,4]triazolo[1,5-c]pyrimidin-5-amine (isomer 2)]
